The values that follow come from ChEMBL document CHEMBL1773056 (Bioorg Med Chem Lett, 2011).

For data set [1], the target named is T1, 5-hydroxytryptamine receptor 1A (Homo sapiens, UniProt P08908).
T1 sequence (P08908 whole entry): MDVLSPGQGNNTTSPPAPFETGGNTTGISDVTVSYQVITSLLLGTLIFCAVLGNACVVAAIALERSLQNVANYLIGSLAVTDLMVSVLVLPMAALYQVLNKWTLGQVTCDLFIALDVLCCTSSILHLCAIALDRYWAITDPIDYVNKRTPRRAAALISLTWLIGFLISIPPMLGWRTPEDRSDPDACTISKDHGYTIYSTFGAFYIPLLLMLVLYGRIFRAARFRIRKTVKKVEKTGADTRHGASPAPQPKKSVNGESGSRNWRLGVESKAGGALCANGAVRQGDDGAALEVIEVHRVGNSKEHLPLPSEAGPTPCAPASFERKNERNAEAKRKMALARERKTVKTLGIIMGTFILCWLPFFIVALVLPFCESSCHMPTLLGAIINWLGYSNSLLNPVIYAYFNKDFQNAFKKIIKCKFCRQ
Kind of data set: biochemical. Type of data set: cell-based, HeLa.
Description: Displacement of [3H]-8-OH-DPAT from human 5HT1A receptor expressed in HeLa cells

Data set [2] is described as follows: in vivo. The settings on record: rat, po.
Description: Oral bioavailability in rat
Data set [3] deals with 5-hydroxytryptamine receptor 2A (Homo sapiens, UniProt P28223).
Description: Binding affinity to human 5HT2A receptor
The next data set deals with D(2) dopamine receptor (Homo sapiens, UniProt P14416). In words: biochemical. Type of data set: cell-based, CHO.
The species entered for data set [4] is Mus musculus. The settings on record: in vivo.
Description: Induction of catalepsy in mouse
The species named for data set [5] is Mus musculus. In words: animal or person. The settings on record: po, read-out: MED.
Description: Antipsychotic activity in po dosed mouse assessed as inhibition of spontaneous locomotor activity
For data set [6], the species on record is Mus musculus. The format is functional, Brain.
Description: In vivo intrinsic activity at D2 receptor in sc dosed mouse brain assessed as inhibition of gamma-butyrolactone-induced increase in DOPA synthesis
The nature of data set [7]: in vivo. The settings on record: rhesus monkey, po, 3 mg/kg.
Data set [8] can be described thus: in vivo. To be noted: rhesus monkey, po, 3 mg/kg. The source holds these as a separate data set.
The nature of data set [9]: in vivo. The settings on record: rat, iv, 1 mg/kg.
The nature of data set [10]: in vivo. The settings on record: rat, po, 3 mg/kg.
Data set [11] can be described thus: in vivo. The settings on record: rat, po, 3 mg/kg. The source holds these as a separate data set.
The species named for data set [12] is Rattus norvegicus. Kind of data set: animal or person. The format is functional. To be noted: po.
Data set [13] in a line: in vivo. To be noted: rhesus monkey, iv, 1 mg/kg.
For data set [14], the species on record is Rattus norvegicus. In words: animal or person. The format is functional. The settings on record: po. This is another data set of the same source.
The nature of data set [15]: in vivo. The settings on record: rat, iv, 1 mg/kg. This is another data set of the same source.
Description: Volume of distribution at steady state in rat at 1 mg/kg, iv and 3 mg/kg, po
A short description of data set [16]: in vivo. To be noted: rhesus monkey, iv, 1 mg/kg. The source holds these as a separate data set.
Description: Volume of distribution at steady state in rhesus monkey at 1 mg/kg, iv and 3 mg/kg, po
For data set [17], the species on record is Mus musculus. The format is functional, Brain. The source holds these as a separate data set.
Description: In vivo intrinsic activity at D2 receptor in po dosed mouse brain assessed as inhibition of gamma-butyrolactone-induced increase in DOPA synthesis
A short description of data set [18]: in vivo. To be noted: rhesus monkey, iv, 1 mg/kg. The source holds these as a separate data set.
Description: Half life in rhesus monkey at 1 mg/kg, iv
Data set [19] can be described thus: in vivo. The settings on record: rat, po, 3 mg/kg. The source holds these as a separate data set.
For data set [20], the species on record is Rattus norvegicus. The format is functional.
Data set [21] can be described thus: in vivo. To be noted: rhesus monkey, po, 3 mg/kg. The source holds these as a separate data set.
Data set [22] is described as follows: in vivo. The settings on record: rat, iv, 1 mg/kg. This is another data set of the same source.
Description: Half life in rat at 1 mg/kg, iv

Where only a bound is given, the exact number is not on record here.

D(2) dopamine receptor, sequence (P14416 whole entry): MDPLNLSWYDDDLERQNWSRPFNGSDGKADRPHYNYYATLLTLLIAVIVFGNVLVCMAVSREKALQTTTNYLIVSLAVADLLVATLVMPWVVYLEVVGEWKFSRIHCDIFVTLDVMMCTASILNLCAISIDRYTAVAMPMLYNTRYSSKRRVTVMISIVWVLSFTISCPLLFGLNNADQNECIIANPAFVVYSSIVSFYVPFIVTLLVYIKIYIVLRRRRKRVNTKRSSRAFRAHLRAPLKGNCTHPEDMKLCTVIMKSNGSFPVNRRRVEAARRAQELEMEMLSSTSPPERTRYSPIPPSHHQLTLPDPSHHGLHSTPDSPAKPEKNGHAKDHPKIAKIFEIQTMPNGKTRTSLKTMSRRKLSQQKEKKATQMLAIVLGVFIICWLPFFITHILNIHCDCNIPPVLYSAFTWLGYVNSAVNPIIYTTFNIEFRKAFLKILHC
5-hydroxytryptamine receptor 2A, sequence (P28223 whole entry): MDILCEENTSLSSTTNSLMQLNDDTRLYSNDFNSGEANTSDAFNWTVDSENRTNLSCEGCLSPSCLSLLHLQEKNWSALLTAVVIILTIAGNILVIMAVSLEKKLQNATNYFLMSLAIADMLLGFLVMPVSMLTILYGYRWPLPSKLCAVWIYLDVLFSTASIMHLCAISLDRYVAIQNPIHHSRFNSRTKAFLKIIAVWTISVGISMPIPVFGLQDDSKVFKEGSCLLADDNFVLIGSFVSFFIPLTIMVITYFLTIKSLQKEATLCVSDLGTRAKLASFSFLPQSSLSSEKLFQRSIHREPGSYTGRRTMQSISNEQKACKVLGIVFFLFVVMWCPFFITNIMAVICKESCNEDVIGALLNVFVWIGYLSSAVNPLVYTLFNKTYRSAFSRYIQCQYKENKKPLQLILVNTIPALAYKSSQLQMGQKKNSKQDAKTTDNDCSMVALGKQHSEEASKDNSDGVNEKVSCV
Description for D(2) dopamine receptor: Displacement of [3H]Spiperone from human dopamine D2L receptor expressed in CHO cells

As usually defined, the Ki is a measure of affinity in units of concentration, obtained from inhibition or displacement. What is called bioavailability is dose-corrected exposure relative to a reference, in per cent. In the case of `O=C1CCc2ccc(OCCCCN3CCN(c4cccc(Cl)c4Cl)CC3)nc2N1`, the Ki in data set [1] turned out to be 17.7 nM; in [3], 0.13 nM. Besides, in the data set “in vivo [2]”, the bioavailability turned out to be 23%.
Turning to `O=C1CCc2ccc(OCCCCN3CCN(c4cccc(Cl)c4F)CC3)nc2N1`, the Ki was found to be 1.2 nM in data set [1] and 10.4 nM in data set [3].
The corresponding values for `O=C1CCc2ccc(OCCCCN3CCN(c4cccc5c4CCCC5)CC3)nc2N1` are 28 nM and 0.09 nM.
Take `O=C1CCc2ccc(OCCCCN3CCN(c4ccccc4Cl)CC3)nc2N1`: the inhibitory constant (Ki) in data set [1] stood at 4.6 nM; in [3], 15.9 nM.
`O=C1CCc2ccc(CCCCCN3CCN(c4cccc(Cl)c4Cl)CC3)nc2N1`: the Ki came out at 11.4 nM in data set [1] and 0.79 nM in [3]. Also, the bioavailability in “in vivo [2]” amounted to 6%.
For the compound `O=C1CCc2ccc(OCCCCN3CCN(c4cccc5c4CCCO5)CC3)nc2N1`, the Ki in data set [1] turned out to be 0.78 nM; at D(2) dopamine receptor, 1 nM; in data set [3], 1.3 nM.
`O=c1ccc2cnc(OCCCCN3CCN(c4cccc(Cl)c4Cl)CC3)nc2[nH]1`: the results for the Ki in data set [1] and in data set [3] were 52.7 nM and 3.2 nM, respectively.
`Cc1cccc(N2CCN(CCCCOc3ccc4c(n3)NC(=O)CC4)CC2)c1Cl` showed an inhibitory constant (Ki) in data set [3] of 0.5 nM.
In the case of `O=C1CCc2ccc(OCCCCN3CCN(c4cccc(F)c4Cl)CC3)nc2N1`, the Ki in data set [1] was found to be 1.7 nM; in data set [3] it was 31.2 nM.
For `O=c1ccc2cnc(OCCCCN3CCN(c4cccc(Cl)c4Cl)CC3)cc2[nH]1`, the results for the inhibitory constant (Ki) in data set [1] and in data set [3] were 40.7 nM and 2.9 nM, respectively.
Turning to `O=C1CCc2ccc(OCCCCN3CCN(c4cccc(C(F)(F)F)c4Cl)CC3)nc2N1`, in data set [3], the Ki was 12 nM.
Still for that read-out and setting: then `Cc1ccccc1N1CCN(CCCCOc2ccc3c(n2)NC(=O)CC3)CC1`, with 50.9 nM.
With `O=C1CCc2ccc(OCCCCN3CCN(c4c(F)ccc5ccccc45)CC3)nc2N1`, the Ki came out at 0.84 nM in data set [1] and 6.7 nM in data set [3].
As to `O=C1CCc2ccc(OCCCCN3CCN(c4cccc(Cl)c4C(F)(F)F)CC3)nc2N1`, the results for the Ki (in data set [1]; at D(2) dopamine receptor; in [3]) were 3.5 nM, 3 nM and 1.4 nM, respectively.
Regarding `Cc1c(Cl)cccc1N1CCN(CCCCOc2ccc3c(n2)NC(=O)CC3)CC1`, the Ki in data set [3] came out at 1.5 nM.
As to `O=C1CCc2ccc(OCCCCN3CCN(c4cc(F)cc5ccccc45)CC3)nc2N1`, the Ki in [1] amounted to 3.3 nM; in data set [3], 1.9 nM.
`O=C1CCc2ccc(OCCCCN3CCN(c4cccc5ccc(F)cc45)CC3)nc2N1`: the Ki is 1.1 nM in [1], 1.2 nM on D(2) dopamine receptor and 0.28 nM in [3].
`Cc1cccc(N2CCN(CCCCOc3ccc4c(n3)NC(=O)CC4)CC2)c1C`: in [3], affinity was put at a Ki of 0.35 nM.
For the compound `O=C1CCc2ccc(OCCCCN3CCN(c4cccc5cccc(F)c45)CC3)nc2N1`, the values for the Ki (in [1]; at D(2) dopamine receptor; in data set [3]) were 0.77 nM, 1.7 nM and 0.67 nM, respectively.
Turning to `O=C1CCc2ccc(OCCCCN3CCN(c4cccc5c4CCC5)CC3)nc2N1`, the Ki came to 6.3 nM in data set [1] and 0.16 nM in data set [3].
As to `O=C1CCc2ccc(OCCCCN3CCN(c4cccc5c4OCCC5)CC3)nc2N1`, the Ki in data set [1] was 1.1 nM; at D(2) dopamine receptor it was 0.71 nM; in [3] it was 0.19 nM.
The compound `O=c1ccc2ccc(OCCCCN3CCN(c4cccc5ccccc45)CC3)nc2[nH]1` came in with an MED in the data set listed under Mus musculus [4] above 30 mg/kg. In addition, the minimal effective dose in the data set listed under Mus musculus [5] is 1 mg/kg. Moreover, the “inhibition (INH)” value in the data set listed under Mus musculus [6] was found to be 45%.
In data set [3], `O=C1CCc2ccc(OCCCCN3CCN(c4ccc(F)c5ccccc45)CC3)nc2N1` came in with a Ki of 11.7 nM.
As for `O=C1CCc2ccc(OCCCCN3CCN(c4cccc5c(F)cccc45)CC3)nc2N1`, the Ki worked out at 3 nM in data set [1] and 3.3 nM in data set [3].
By Tmax is commonly meant the time from dosing to the highest level. The Cmax is the maximum level reached in the sampled fluid or tissue. By clearance is commonly meant the volume of plasma or blood freed of the substance per unit of time. The low end stands for a low capacity for elimination, the high end for a high capacity for elimination. One may read the inhibition in vivo as the drop in the measured response relative to a control, in per cent. The low end stands for little suppression, the high end for strong suppression. One may read the Vd as a proportionality between amount in the body and measured concentration, not a real space. Read a high Vd as extensive tissue distribution. What is called half-life is the time needed for the level to fall by half in the phase considered. For the compound `O=C1CCc2ccc(OCCCCN3CCN(c4cccc5ccccc45)CC3)nc2N1` [PF-00217830], the figures for the Tmax in the data set “in vivo [7]” and in the data set “in vivo [10]” were 5 h and 1.2 h, respectively. The same compound came in with an MED in the data set listed under Mus musculus [4] above 10 mg/kg. Moreover, the Cmax in the data set “in vivo [8]” is 96 ng/mL; in the data set “in vivo [19]”, 202 ng/mL. The clearance in “in vivo [9]” is 14.9 mL/min/kg; in “in vivo [13]” it was 5.8 mL/min/kg. Further, the bioavailability came to 19.2% in “in vivo [11]” and 20.5% in “in vivo [21]”. Further, the minimal effective dose in the data set listed under Mus musculus [5] worked out at 0.3 mg/kg. Moreover, the inhibition constant (Ki) in [1] was 3.7 nM; in data set [3], 0.14 nM. Further, at 1 mg/kg the inhibition in vivo in the data set filed under Rattus norvegicus [12] was 78%. In addition, testing at 0.3 mg/kg in the data set listed under Rattus norvegicus [14] gave an inhibition in vivo of 31%. In addition, the figures for the distribution volume (Vd) in “in vivo [15]” and in “in vivo [16]” were 1.1 L/kg and 2.6 L/kg, respectively. The “inhibition (INH)” value came to 46% in the data set listed under Mus musculus [17] and 78% in the data set filed under Rattus norvegicus [20]. Besides, the half-life in the data set “in vivo [18]” is 13.6 h; in the data set “in vivo [22]” it was 6.8 h.
For `O=C1CCc2ccc(OCCCCN3CCN(c4cccc5cc(F)ccc45)CC3)nc2N1`, the inhibition constant Ki in data set [1] stood at 1.2 nM; in data set [3], 3.5 nM.
The like results for `O=c1ccc2ccc(OCCCCN3CCN(c4cccc(Cl)c4Cl)CC3)nc2[nH]1` were, in that order, 14 nM and 1.6 nM.
